US20090048112A1, “Novel Herbicides” (SYNGENTA LIMITED, priority 2005, published 2009)

Key:
[1] = tested on: Monocotyledonous and dicotyledonous test plants; assay: Example B3: herbicidal action prior to emergence (pre-emergence), 96-cell seed trays, 1000 g/ha; type: in vivo; set-up: key: 0 is no damage to plant; 5 is total damage to plant; conditions: 9 days after application; for AGSTE herbicidal effect (visual assessment, scale 0-5): Agrostis tenius (Colonial bentgrass); for AMARE herbicidal effect (visual assessment, scale 0-5): Amaranthus retroflexus (redroot pigweed); for DIGSA herbicidal effect (visual assessment, scale 0-5): Digitaria sanguinalis (hairy finger-grass); for POATR herbicidal effect (visual assessment, scale 0-5): Poa trivialis (rough blue grass); for SETIT herbicidal effect (visual assessment, scale 0-5): Setaria italica (foxtail millet)
Method: Monocotyledonous and dicotyledonous test plants were sown in sterilised standard soil in seed trays each with 96 cells. The seed trays were stored under controlled conditions in a climatic chamber for one day (cultivation at 23° C. during the day and 17° C. at night; 13 hours of light; 50-60% humidity). The chemicals were applied to the soil surface. The application was carried out with an aqueous suspension of the test substances, prepared as a formulation in water with 10% dimethyl sulfoxide (CAS RN 67-68-5), to achieve a field equivalent of 1000 l/ha. The application rate of the test substances was 1000 g/ha. The plants were grown on in the climatic chamber for 9 days (cultivation at 24° C. during the day and 19° C. at night; 13 hours of light; 50-60% humidity). A visual assessment of the herbicidal effect was made at 9 days after application. The following scale was used for assessment: 0, 1, 2, 3, 4 and 5 (where 0 is no damage to plant and 5 is total damage to plant).

[2] = tested on: Monocotyledonous and dicotyledonous test plants; assay: Example B1: herbicidal action prior to emergence (pre-emergence), 500 g/ha; type: in vivo; conditions: 13 days after application, 0 = no damage, 100 = plants completely dead
Method: Monocotyledonous and dicotyledonous test plants were sown in seed trays in standard compost. The trays were watered twice daily or as required. The chemicals were applied by track sprayer at the soil surface. The application was carried out with an aqueous suspension of the test substances, prepared as a formulation of 50% acetone in water with 0.5% Tween 20™ (CAS RN 9005-64-5), to achieve a field equivalent of 1000 l/ha. The application rate of the test substances was 500 g/ha. A visual assessment of the herbicidal effect was made at 13 days after application. The following percentage scale was used for assessment: 0, 5, 10, 20, 30, 40, 50, 60, 70, 80, 90, 95, 100 (where 0 is no damage to plants and 100 is plants are completely dead).

Compound	AGSTE herbicidal effect (visual assessment, scale 0-5) [1]	AMARE herbicidal effect (visual assessment, scale 0-5) [1]	DIGSA herbicidal effect (visual assessment, scale 0-5) [1]	POATR herbicidal effect (visual assessment, scale 0-5) [1]	SETIT herbicidal effect (visual assessment, scale 0-5) [1]	ALOMY herbicidal effect (visual assessment, percentage scale) ([2]; Alopecurus myosuroides (slender foxtail)) [%]	AMARE herbicidal effect (visual assessment, percentage scale) ([2]; Amaranthus retroflexus (redroot pigweed)) [%]	ECHCG herbicidal effect (visual assessment, percentage scale) ([2]; Echinochloa crus-galli (barnyard grass)) [%]	STEME herbicidal effect (visual assessment, percentage scale) ([2]; Stellaria media (chickweed)) [%]
CC(Oc1c(CSc2ncc(Cl)s2)c(C(F)(F)F)nn1C)C(F)(F)F (racemic) [Compound No. 1.126]	4	4	5	1	4				
Cn1nc(C(F)(F)F)c(CS(=O)(=O)c2ncc(Cl)s2)c1OCC(F)(F)C(F)F [Compound 1.120]	5	5	5	5	5				
Cn1nc(C(F)(F)F)c(CSc2ncc(Cl)s2)c1OCCCF [Compound No. 1.102]	5	2	4	0	2				
Cn1nc(C(F)(F)F)c(C[S+]([O-])c2ncc(Cl)s2)c1OC(CF)CF (racemic) [Compound 1.113]	5	5	5	4	5				
Cn1nc(C(F)(F)F)c(C[S+]([O-])c2ncc(Cl)s2)c1OCCCF (racemic) [Compound 1.103]	5	4	5	5	4				
Cn1nc(C(F)(F)F)c(C[S+]([O-])c2ncc(Cl)s2)c1S(C)(=O)=O (racemic) [Compound No. 1.092]	5	3	5	3	4				
CCS(=O)(=O)c1c(C[S+]([O-])c2ncc(Cl)s2)c(C(F)(F)F)nn1C (racemic) [1.080]	5	4	5	5	5				
CC(Oc1c(CS(=O)(=O)c2ncc(Cl)s2)c(C(F)(F)F)nn1C)C(F)(F)F (racemic) [Compound 1.130]	5	5	5	5	5				
CC[S+]([O-])c1c(C[S+]([O-])c2ncc(Cl)s2)c(C(F)(F)F)nn1C (mixture of isomers) [Compound No. 1.078]	5	4	5	5	5				
Cn1nc(C(F)(F)F)c(CSc2ncc(Cl)s2)c1OCC(F)F [Compound No. 1.115]	5	3	5	0	3				
Cn1nc(OC(F)F)c(CS(=O)(=O)c2ncc(Cl)s2)c1C(F)(F)F [Compound 1.055]	4	2	5	5	5	95	0	100	0
Cn1cc(C[S+]([O-])c2ncc(Cl)s2)c(C(F)(F)F)n1 (racemic) [Compound 1.106]	0	2	4	5	4				
CCSc1c(CS(=O)(=O)c2ncc(Cl)s2)c(C(F)(F)F)nn1C [Compound No. 1.077, 5-chloro-2-(5-ethylsulfanyl-1-methyl-3-trifluoromethyl-1H-pyrazole-4-ylmethanesulfonyl)-thiazole]	5	3	5	5	4				
CSc1c(C[S+]([O-])c2ncc(Cl)s2)c(C(F)(F)F)nn1C (racemic) [Compound No. 1.089]	5	5	5	5	5				
CC(CF)Oc1c(CS(=O)(=O)c2ncc(Cl)s2)c(C(F)(F)F)nn1C (racemic) [Compound 1.133]	5	5	5	5	5				
Cn1nc(C(F)(F)F)c(CS(=O)(=O)c2ncc(Cl)s2)c1OCCCF [Compound 1.104]	5	5	5	5	5				
Cn1nc(C(F)(F)F)c(CS(=O)(=O)c2ncc(Cl)s2)c1OC(CF)CF [Compound 1.114]	5	5	5	5	5				
Cn1nc(C(F)(F)F)c(CS(=O)(=O)c2ncc(Cl)s2)c1S(C)(=O)=O [Compound No. 1.093]	5	4	5	5	3				
Cn1cc(C(F)S(=O)(=O)c2ncc(Cl)s2)c(C(F)(F)F)n1 (stereo not shown) [Compound No. 1.110, 5-chloro-2-[fluoro-(1-methyl-3-trifluoromethyl-1H-pyrazol-4-yl)-methanesulfonyl]-thiazole]	0	4	4	4	5				
Cn1cc(CS(=O)(=O)c2ncc(Cl)s2)c(C(F)(F)F)n1 [Compound 1.107]	0	3	5	0	3				
Cc1cnc(S(=O)(=O)Cc2c(C(F)(F)F)nn(C)c2OCC(F)(F)F)s1 [Compound 1.075]	5	1	0	5	5				
C=C(F)COc1c(CS(=O)(=O)c2ncc(Cl)s2)c(C(F)(F)F)nn1C [Compound 1.125]	5	5	5	5	5				
CC(Oc1c(C[S+]([O-])c2ncc(Cl)s2)c(C(F)(F)F)nn1C)C(F)(F)F (mixture of isomers) [Compound 1.127]	5	5	5	5	5				
Cn1nc(C(F)(F)F)c(CS(=O)(=O)c2ncc(Cl)s2)c1OCC(F)F [Compound 1.117]	5	5	5	5	5				
